# Laboratory results as given in PubChem BioAssay (NCI).
# Several values for one entry are separate records, joined by “and”; a condition that tells them apart may be missing. Equal entries are not always repeated.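 Cells were grown in 96-well plates and exposed to each compound for 48 hours at five concentrations; endpoints were interpolated linearly between bracketing concentrations, or set to the highest concentration if not reached. At the GI50, growth is halved. TGI is the concentration that stops growth completely.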 Numbered stars: 1 amine (or outer) side, 2 acyl side, 3 side chain; on linkers, the order of the positions; unused ones are H or OH. Bridge positions count the residues as written; N and C are the ends. Square brackets hold non-standard residues; d marks the D form. Peptide text beside a SMILES is read from it. I, II: the chains in the order shown. Actinocin(1to9) = Cc1c2oc3c(C)ccc(C(=O)[*:2])c3nc-2c(C(=O)[*:1])c(N)c1=O; NMeY = CN[CH](Cc1ccc(O)cc1)C(=O)O; Sar = CNCC(=O)O
# Assays:
# Experiment in all cases: DTP human tumour cell line panel, 48 h
# HCT-116 colon = test system: HCT-116 colon
# IGROV1 ovarian = test system: IGROV1 ovarian
# K-562 leukemia = test system: K-562 leukemia
# NCI-H460 lung = test system: NCI-H460 lung
# SF-268 CNS = test system: SF-268 CNS
# SK-MEL-2 melanoma = test system: SK-MEL-2 melanoma
# SK-MEL-28 melanoma = test system: SK-MEL-28 melanoma
# SW-620 colon = test system: SW-620 colon
# BT-549 breast = test system: BT-549 breast
# T-47D breast = test system: T-47D breast
SMILES,TGI (HCT-116 colon),TGI (IGROV1 ovarian) [µM],TGI (K-562 leukemia) [µM],TGI (NCI-H460 lung) [µM],TGI (SF-268 CNS) [µM],TGI (SK-MEL-2 melanoma) [µM],TGI (SK-MEL-28 melanoma) [µM],TGI (SW-620 colon) [µM],GI50 (BT-549 breast) [µM],TGI (BT-549 breast) [µM],GI50 (IGROV1 ovarian),GI50 (NCI-H460 lung) [nM],GI50 (SF-268 CNS),GI50 (SK-MEL-2 melanoma),GI50 (SK-MEL-28 melanoma) [nM],GI50 (SW-620 colon) [nM],GI50 (T-47D breast) [µM],TGI (T-47D breast) [µM],GI50 (HCT-116 colon),GI50 (K-562 leukemia)
COc1cc2cnc3c4cc(OCc5ccccc5)ccc4ccc3c2cc1OC,> 100 µM,> 100,> 100,> 100,> 100,63,> 100,> 100,–,–,–,–,–,–,–,–,–,–,–,–
CCCCn1c(=O)c(/C=C/C(=O)/C=C/c2cc3ccccc3n(CCCC)c2=O)cc2ccccc21,–,3.42,–,3.49,5.17,5.7,3.48,2.84,0.702,2.2,1460 nM,1800,1980 nM,2090 nM,1810,859,2.28,6.33,–,–
CNC(=O)CN(CC(=O)O)C(=O)NC,–,> 100,> 100,–,> 100,> 100,–,> 100,–,–,–,–,–,–,–,–,–,–,–,–
CCC(CO)Nc1nc2c(c(=O)n(C)c(=O)n2C)n1CCO (stereo not drawn),> 100 µM,> 100,> 100,–,> 100,> 100,> 100,> 100,–,–,–,–,–,–,–,–,–,–,–,–
C=C1C(OC(C)=O)CC(OC(C)=O)C2(C)C(OC(C)=O)C(OC(C)=O)C3=C(C)C(OC(=O)/C=C/c4ccccc4)CC(C(OC(C)=O)C12)C3(C)C (stereo not drawn),> 100 µM,> 100,> 100,> 100,> 100,> 100,–,> 100,–,–,–,–,–,–,–,–,–,–,–,–
COc1ccc2c(c1)CCc1c-2n[nH]c1-c1[nH]nc2c1CCc1cc(OC)ccc1-2,> 100 µM,> 100,> 100,> 100,> 100,> 100,> 100,> 100,–,–,–,–,–,–,–,–,–,–,–,–
COc1ccc2c(c1)CN1CCc3c(cc(OC)c(OC)c3OC)C1C2 (stereo not drawn),> 100 µM,> 100,> 100,–,> 100,> 100,> 100,> 100,–,–,–,–,–,–,–,–,–,–,–,–
NC(Cc1ccccc1)c1nccs1 (stereo not drawn),> 100 µM,> 100,> 100,–,> 100,> 100,> 100,> 100,–,> 100,–,–,–,–,–,–,–,–,–,–
COc1ccc(OC(C)C(=O)O)c2c(=O)ccccc12 (stereo not drawn),–,> 100,> 100,> 100,> 100,> 100,> 100,> 100,–,–,–,–,–,–,–,–,–,–,–,–
COc1cc(/C=N/N=C(\N)NO)c([N+](=O)[O-])cc1OC,75.1 µM,> 100,> 100,> 100,99.2,> 100,> 100,> 100,–,–,–,–,–,–,–,–,–,–,–,–
O=c1/c(=N\Nc2ccccc2)c2cccc3ccc4cccc1c4c32,> 100 µM,> 100,> 100,–,> 100,> 100,> 100,> 100,–,> 100,–,–,–,–,–,–,–,> 100,–,–
CC[PH+](CC)CC.[Cl][Au],3.59 µM,7.15,1.19,47.9,3.35,2.95,2.35,1.98,–,–,2640 nM,16200,1510 nM,1380 nM,780,567,–,–,1840 nM,319 nM
CCC[CH2][Sn]1([CH2]CCC)[S]CC[N]1S(=O)(=O)c1ccc(C)cc1,2.81 µM,3.27,1.97,5.44,2.54,2.73,2.61,–,–,–,1700 nM,2500,1190 nM,1390 nM,1290,–,–,–,1420 nM,341 nM
CCCCN(CCCC)CC(C(C)=O)C(c1ccccc1)c1c(O)c2ccccc2oc1=O (stereo not drawn),> 100 µM,> 100,> 100,> 100,> 100,> 100,> 100,> 100,–,–,–,–,–,–,–,–,–,–,–,–
CC(=O)NN1C(=O)C(Cc2ccccc2)c2ccccc21 (stereo not drawn),> 100 µM,> 100,> 100,> 100,> 100,> 100,> 100,> 100,–,–,–,–,–,–,–,–,–,–,–,–
O/N=C/c1ccc(O)c(O)c1,> 100 µM,> 100,> 100,> 100,> 100,> 100,> 100,35.3,–,–,–,–,–,–,–,–,–,–,–,–
CN1CCN(CCCOc2cc(O)c3c(=O)cc(-c4ccccc4)oc3c2)CC1,–,95.3,21.9,34.5,48.7,> 100,30.6,42.4,21.1,46,24900 nM,16700,20100 nM,35300 nM,16100,19500,28,79.2,–,6980 nM
CN(N)c1nc(N)c(C#N)c(C#N)c1C#N,> 10 µM,> 10,> 10,–,> 10,–,> 10,> 10,–,> 10,–,–,–,–,–,–,–,> 10,–,–
COc1cc(C(=O)c2cocc2C(=O)c2ccc3c(c2)OCO3)cc(OC)c1OC,24.4 µM,48.5,> 94.9,23.4,45,> 41.7,> 49.5,> 57.8,–,0.552,–,–,–,–,–,–,–,–,–,–
COC(C)C(O)(C(=O)OCC1=CCN2CCC(O)C12)C(C)(C)O (stereo not drawn),> 100 µM,> 100,–,> 100,> 100,> 100,> 100,> 100,–,> 100,–,–,–,–,–,–,–,> 100,–,–
"COc1ccc(CC2C(=O)OC(C)C(NC(=O)c3c4nc5c(C(=O)NC6C(=O)NC(C(C)C)C(=O)N7CCCC7C(=O)N(C)CC(=O)N(C)C(Cc7ccc(OC)cc7)C(=O)OC6C)ccc(C)c5oc-4c(C)c(=O)c3N)C(=O)NC(C(C)C)C(=O)N3CCCC3C(=O)N(C)CC(=O)N2C)cc1 (stereo not drawn) (I: TVP[Sar][NMeY](Me) / II: TVP[Sar][NMeY](Me); ester I:1-I:C, II:1-II:C; linker I:N-II:N via Actinocin(1to9); configuration not given here)",1.12 µM and > 1 µM,–,< 0.01,< 0.01,–,–,–,–,–,0.246,< 10 nM and 3.27 nM,< 10,< 10 nM and 4.84 nM,< 10 nM and 22.8 nM,–,–,–,–,< 10 nM and 2.98 nM,< 10 nM and 3.9 nM
